Reference: US7012072B2, “Pharmaceutical oxaliplatinum preparation for parenteral administration and method for obtaining same” (Debiopharm S.A., priority 2000, dated 2006)

Experiments:
Type in all cases: physicochemical
[1] = Preparation of concentrated oxaliplatin solutions in solvent with hydroxylated derivative; details: solvent with sufficient amount of 1,2-propanediol, glycerol, maltitol, sucrose or inositol
Protocol: One of the co-solvents chosen from 1,2-propanediol, glycerol and maltitol, respectively, is introduced into the receptacle at the same time as or prior to the addition of water to make the volume up to 25 ml, according to the corresponding volume/volume or weight/volume ratios as indicated in the various tables.
After returning to ambient temperature, namely approximately 20° C., a clarifying filtration operation is optionally carried out in order to ensure clarity.

[2] = Wet heat sterilization, three successive cycles at 80° C., observation after 72 hours at refrigerator temperature; details: 10 mg/ml, 3 cycles 80° C. ± 2, 30 min, 24 h standing at approx. 20° C.
Protocol: They were then subjected to operations of wet heat sterilization by carrying out three successive cycles of heating at a temperature of 80° C., followed by a return to an ambient temperature of approximately 20° C.
The solutions thus treated were kept, before observation, at refrigerator temperature for 72 hours.

[3] = Wet heat treatment of oxaliplatin solutions in an autoclave, observation after return to ambient temperature; details: for Observation after storage (black precipitate): degassed with argon; for Observatios: appearance of solution: 24 hours after treatment
Text: The mixtures as obtained by applying the method described in example 1, and according to the relative amounts indicated in table 1, […] well known to a specialist. […]

[4] = 10 mg/ml supersaturated, water for injectable preparation, 80° C. ± 2, 30 min

Structure (SMILES): O=C1[O][Pt]2([NH][C@@H]3CCCC[C@H]3[NH]2)[O]C1=O [Oxaliplatin]
- concentration of oxaliplatin obtained in the preparation [1]: over 7 mg/ml
- Observations: appearance of solution ([2]; 1,2-propanediol/water for injectable preparation 50/50 (V/V)): clear appearance
- Observations: appearance of solution ([2]; 85% glycerol/water for injectable preparation 50/50 (V/V)): clear appearance
- Observations: appearance of solution ([2]; maltitol/water for injectable preparation 50% (m/V)): clear appearance
- Observation after storage ([3]; 10 mg/ml supersaturated, water for injectable preparation, no co-solvent, 120° C. ± 2, 90 min): presence of black precipitate
- Observation after storage: appearance of solution [3, 4]: solution has a clear appearance
- Observation after storage: precipitate [3, 4]: no presence of precipitate
- Observation after storage (black precipitate) ([3]; 10 mg/ml, 1,2-propanediol/water 20/20 (V/V), 110° C. ± 2, 120 min): presence of
- Observation after storage (black precipitate) ([3]; 10 mg/ml, 1,2-propanediol/water 20/20 (V/V), 120° C. ± 2, 150 min): presence of
- Observatios: appearance of solution ([3]; 10 mg/ml, 1,2-propanediol/water 50/50 (V/V), 70° C. ± 2, 30 min): clear
- Observation after storage (black precipitate) ([3]; 10 mg/ml, 85% glycerol/water 20/20 (V/V), 110° C. ± 2, 120 min): presence of
- Observation after storage (black precipitate) ([3]; 10 mg/ml, 85% glycerol/water 20/20 (V/V), 120° C. ± 2, 150 min): presence of
- Observatios: appearance of solution ([3]; 10 mg/ml, 85% glycerol/water 50/50 (V/V), 70° C. ± 2, 30 min): clear
- Observation after storage (black precipitate) ([3]; 10 mg/ml, maltitol/water 50% (m/V), 110° C. ± 2, 120 min): presence of
- Observation after storage (black precipitate) ([3]; 10 mg/ml, maltitol/water 50% (m/V), 120° C. ± 2, 150 min): presence of
- Observatios: appearance of solution ([3]; 10 mg/ml, maltitol/water 50% (m/V), 70° C. ± 2, 30 min): clear
- Observatios: appearance of solution ([3]; 12 mg/ml, maltitol/water 30% (m/V), 80° C. ± 2, 30 min): clear
